Source: PubChem BioAssay AID248 (DTP/NCI, 2004)
Inconclusive results and toxic doses are left out. No stated cut-off is given here; in the data, active means T/C of 150% or more; inactive means T/C below 125%.

Test system: L1210 leukemia ip in BDF1 mice, survival T/C
Experiment: NCI In Vivo Anticancer Drug Screen. Data for tumor model L1210 Leukemia (intraperitoneal) in B6D2F1 (BDF1) mice
Conditions: endpoint: mean survival time, higher = longer survival
In short: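 Each compound was tested against a transplantable tumor grown in mice. The endpoint was survival, with treated animals benchmarked against vehicle controls as a simple ratio.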

[1] = dose: 100.0 mg/kg/injection, schedule: Q04DX003 (ip), vehicle: saline with Tween-80
[2] = dose: 200.0 mg/kg/injection, schedule: Q04DX003 (ip), vehicle: saline with Tween-80
[3] = dose: 400.0 mg/kg/injection, schedule: Q04DX003 (ip), vehicle: saline with Tween-80
[4] = dose: 50.0 mg/kg/injection, schedule: Q01DX009 (ip), vehicle: saline
[5] = dose: 100.0 mg/kg/injection, schedule: Q01DX009 (ip), vehicle: saline
[6] = dose: 100.0 mg/kg/injection, schedule: Q01DX001 (ip), vehicle: carboxymethylcellulose (CMC)
[7] = dose: 100.0 mg/kg/injection, schedule: Q01DX009 (ip), vehicle: saline with Tween-80
[8] = dose: 200.0 mg/kg/injection, schedule: Q01DX001 (ip), vehicle: carboxymethylcellulose (CMC)
[9] = dose: 200.0 mg/kg/injection, schedule: Q01DX009 (ip), vehicle: saline with Tween-80
[10] = dose: 400.0 mg/kg/injection, schedule: Q01DX001 (ip), vehicle: carboxymethylcellulose (CMC)
[11] = dose: 100.0 mg/kg/injection, schedule: Q01DX009 (ip), vehicle: Klucel (hydroxypropylcellulose) (HPC)
[12] = dose: 200.0 mg/kg/injection, schedule: Q01DX009 (ip), vehicle: Klucel (hydroxypropylcellulose) (HPC)
[13] = dose: 400.0 mg/kg/injection, schedule: Q01DX009 (ip), vehicle: Klucel (hydroxypropylcellulose) (HPC)
[14] = dose: 400.0 mg/kg/injection, schedule: Q01DX009 (ip), vehicle: saline with Tween-80
[15] = dose: 100.0 mg/kg/injection, schedule: Q01DX001 (ip), vehicle: Klucel (hydroxypropylcellulose) (HPC)
[16] = dose: 100.0 mg/kg/injection, schedule: Q04DX003 (ip), vehicle: Klucel (hydroxypropylcellulose) (HPC)
[17] = dose: 100.0 mg/kg/injection, schedule: Q01DX001 (ip), vehicle: saline
[18] = dose: 200.0 mg/kg/injection, schedule: Q01DX001 (ip), vehicle: saline
[19] = dose: 400.0 mg/kg/injection, schedule: Q01DX001 (ip), vehicle: saline

Measured: T/C

O=C1CC(N2C(=O)C3C4CCC(O4)C3C2=O)C(=O)N1 (centres undefined)
inactive: [1] 100 % of control | [2] 108 % of control | [3] 104 % of control

O=S(=O)(NC(=S)c1ccccc1)c1ccccc1
inactive: [4] 108 % of control | [5] 97 % of control

NC1=NC(=O)/C(=C/c2ccccc2)S1
inactive: [6] 100 % of control | [7] 90 % of control | [8] 89 % of control | [9] 91 % of control | [10] 86 % of control

Nc1ccc(OCC(=O)N2CCOCC2)c(Cl)c1
inactive: [5] 100 % of control | dose: 100.0 mg/kg/injection, schedule: Q04DX003 (ip), vehicle: saline 110 % of control | dose: 200.0 mg/kg/injection, schedule: Q01DX009 (ip), vehicle: saline 102 % of control | dose: 200.0 mg/kg/injection, schedule: Q04DX003 (ip), vehicle: saline 98 % of control | dose: 400.0 mg/kg/injection, schedule: Q01DX009 (ip), vehicle: saline 96 % of control | dose: 400.0 mg/kg/injection, schedule: Q04DX003 (ip), vehicle: saline 101 % of control

O=C1C=CC(=O)N1C(=O)NC(I)NC(=O)N1C(=O)C=CC1=O
inactive: [6] 94 % of control | [8] 98 % of control | [10] 100 % of control

O=C1/C(=C\c2ccc(OCc3ccccc3)cc2)N2CCC1CC2
inactive: [1] 97 % of control | [2] 95 % of control | [3] 87 % of control

CCNC(=O)OC1C=CS(=O)(=O)C1 (centres undefined)
inactive: dose: 100.0 mg/kg/injection, schedule: Q04DX002 (ip), vehicle: saline 106 % of control | dose: 200.0 mg/kg/injection, schedule: Q04DX002 (ip), vehicle: saline 92 % of control | dose: 400.0 mg/kg/injection, schedule: Q04DX002 (ip), vehicle: saline 106 % of control

COc1ccc(S(=O)(=O)F)cc1NC(=O)NCc1ccc([N+](=O)[O-])cc1
inactive: [11] 103 % of control | [12] 110 % of control | [13] 108 % of control

CCOC(=O)/C=C(\C)CO (tested in a mixture with another compound)
inactive: dose: 50.0 mg/kg/injection, schedule: Q01DX009 (ip), vehicle: saline with Tween-80 93 % of control | [7] 93 % of control | [9] 101 % of control

CN(C)CCN(C(=O)c1ccc(N)cc1)c1ccccc1
inactive: [4] 91 % of control | [5] 109 % of control

CCc1oc(N)nc1-c1ccccc1
inactive: [1] 105 % of control | [2] 101 % of control | [3] 97 % of control

[Co+2].[NH-]c1ccccc1C(=O)O.[NH-]c1ccccc1C(=O)O
inactive: [7] 94 % of control | [9] 93 % of control | [14] 86 % of control

O=c1cccc2n1Cc1cc3ccccc3nc1-2
inactive: dose: 37.5 mg/kg/injection, schedule: Q04DX003 (ip), vehicle: saline 95 % of control | dose: 75.0 mg/kg/injection, schedule: Q04DX003 (ip), vehicle: saline 89 % of control

Cc1ccc(S(=O)(=O)[N-][n+]2ccccc2)cc1
inactive: [11] 93 % of control | [12] 93 % of control

C[CH2][Sn](/[CH]=C\CO)([CH2]C)[CH2]C
inactive: dose: 0.78 mg/kg/injection, schedule: Q01DX009 (ip), vehicle: saline 86 % of control | dose: 1.56 mg/kg/injection, schedule: Q01DX009 (ip), vehicle: saline 104 % of control | dose: 3.12 mg/kg/injection, schedule: Q01DX009 (ip), vehicle: saline 90 % of control

Cn1cccc1C=O
inactive: [7] 102 % of control | [9] 100 % of control | [14] 97 % of control

Clc1nc(Cl)c2c(ncn2Cc2ccccc2)n1
inactive: dose: 100.0 mg/kg/injection, schedule: Q01DX001 (ip), vehicle: other 95 % of control | dose: 200.0 mg/kg/injection, schedule: Q01DX001 (ip), vehicle: other 104 % of control

CSc1nncc(-c2ccccc2)n1
inactive: dose: 25.0 mg/kg/injection, schedule: Q04DX003 (ip), vehicle: Klucel (hydroxypropylcellulose) (HPC) 97 % of control | dose: 50.0 mg/kg/injection, schedule: Q04DX003 (ip), vehicle: Klucel (hydroxypropylcellulose) (HPC) 96 % of control | [15] 100 % of control | [16] 102 % of control

O=C(Nc1ccccc1)C1C2C=CC(CC2)C1C(=O)Nc1ccccc1 (centres undefined)
inactive: [1] 98 % of control | [2] 107 % of control | [3] 98 % of control

Cc1nc(N)nc(Cl)c1CCCc1ccccc1
inactive: [15] 97 % of control | dose: 200.0 mg/kg/injection, schedule: Q01DX001 (ip), vehicle: Klucel (hydroxypropylcellulose) (HPC) 102 % of control | dose: 400.0 mg/kg/injection, schedule: Q01DX001 (ip), vehicle: Klucel (hydroxypropylcellulose) (HPC) 107 % of control

CCOC(OCC)C(=O)NNC(C)C
inactive: dose: 25.0 mg/kg/injection, schedule: Q01DX009 (ip), vehicle: saline 95 % of control | [4] 97 % of control | [5] 108 % of control

CCOP(=O)(OCC)OCCOCCOP(=O)(OCC)OCC
inactive: dose: 8.8 mg/kg/injection, schedule: Q01DX Z (ip), vehicle: saline 98 % of control | dose: 13.3 mg/kg/injection, schedule: Q01DX Z (ip), vehicle: saline 110 % of control | dose: 20.0 mg/kg/injection, schedule: Q01DX Z (ip), vehicle: saline 96 % of control

NC(N)=NCC(CCN1CCCCC1)c1cccc2ccccc12 (centres undefined)
inactive: dose: 5.0 mg/kg/injection, schedule: Q01DX009 (ip), vehicle: saline 105 % of control | dose: 10.0 mg/kg/injection, schedule: Q01DX009 (ip), vehicle: saline 100 % of control | dose: 12.5 mg/kg/injection, schedule: Q04DX002 (ip), vehicle: saline 93 % of control | dose: 20.0 mg/kg/injection, schedule: Q01DX009 (ip), vehicle: saline 106 % of control | dose: 25.0 mg/kg/injection, schedule: Q04DX002 (ip), vehicle: saline 93 % of control

Cc1cccc(C)c1N1C(=O)C2C(C1=O)C1(Cl)C(Cl)=C(Cl)C2(Cl)C1(Cl)Cl (centres undefined)
inactive: dose: 50.0 mg/kg/injection, schedule: Q01DX009 (ip), vehicle: Klucel (hydroxypropylcellulose) (HPC) 95 % of control | [11] 101 % of control | [16] 114 % of control | dose: 200.0 mg/kg/injection, schedule: Q04DX003 (ip), vehicle: Klucel (hydroxypropylcellulose) (HPC) 101 % of control

O=C1OCCC12CCCCC21OCCO1 (centres undefined)
inactive: [17] 101 % of control | [18] 104 % of control | [19] 98 % of control

C1CCC(CC2CCNCC2)CC1
inactive: dose: 12.5 mg/kg/injection, schedule: Q04DX003 (ip), vehicle: saline with Tween-80 105 % of control | dose: 25.0 mg/kg/injection, schedule: Q04DX003 (ip), vehicle: saline with Tween-80 96 % of control | dose: 50.0 mg/kg/injection, schedule: Q04DX003 (ip), vehicle: saline with Tween-80 102 % of control

Cc1cc(S(=O)(=O)F)ccc1NC(=O)/C=C/c1ccc([N+](=O)[O-])cc1
inactive: [11] 97 % of control | [13] 92 % of control

O=C(NC1CCCCC1)C(=O)NC1CCCCC1
inactive: dose: 50.0 mg/kg/injection, schedule: Q01DX001 (ip), vehicle: saline 102 % of control | [17] 98 % of control | dose: 100.0 mg/kg/injection, schedule: Q04DX002 (ip), vehicle: Klucel (hydroxypropylcellulose) (HPC) 89 % of control | [18] 98 % of control | dose: 200.0 mg/kg/injection, schedule: Q04DX002 (ip), vehicle: Klucel (hydroxypropylcellulose) (HPC) 95 % of control | [19] 96 % of control | dose: 400.0 mg/kg/injection, schedule: Q04DX002 (ip), vehicle: Klucel (hydroxypropylcellulose) (HPC) 103 % of control

COc1cc(/C=C\C(=O)c2ccccc2)c([N+](=O)[O-])cc1OC
inactive: dose: 100.0 mg/kg/injection, schedule: Q01DX001 (ip), vehicle: water 90 % of control | dose: 200.0 mg/kg/injection, schedule: Q01DX001 (ip), vehicle: water 88 % of control | dose: 400.0 mg/kg/injection, schedule: Q01DX001 (ip), vehicle: water 90 % of control
